Data taken from patent US8722720B2, “Imidazole derivatives as IDO inhibitors” (NewLink Genetics Corporation, priority 2010, dated 2014).
Like-named read-outs stand apart in the source and are kept apart here.

Biological target: T1, purified human IDO protein (Homo sapiens, UniProt P14902)
T1 construct: 2 extra amino acids (linker from the BglII cloning site of pQE70); made in house; host or cells: E. coli M15(pREP4) with plasmid pQE70-hIDO
Assay: Enzymatic IDO assay (kynurenine production, absorbance at 480 nm)
Assay type: biochemical
Details: values reported in ranges
Procedure, shortened: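 Inhibitors (final 1 mM to 5 nM, in 50 mM potassium phosphate) preincubated with enzyme 5 min at 25 °C, then 200 μM L-tryptophan added, 15 min at 37 °C. TCA stop and 60 °C hydrolysis to kynurenine, detected with p-dimethylaminobenzaldehyde at 480 nm. IC50 by nonlinear regression.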

[1] = recombinant human IDO, read-out: hIDO IC50

T1 sequence (P14902 whole entry P110S/E119G): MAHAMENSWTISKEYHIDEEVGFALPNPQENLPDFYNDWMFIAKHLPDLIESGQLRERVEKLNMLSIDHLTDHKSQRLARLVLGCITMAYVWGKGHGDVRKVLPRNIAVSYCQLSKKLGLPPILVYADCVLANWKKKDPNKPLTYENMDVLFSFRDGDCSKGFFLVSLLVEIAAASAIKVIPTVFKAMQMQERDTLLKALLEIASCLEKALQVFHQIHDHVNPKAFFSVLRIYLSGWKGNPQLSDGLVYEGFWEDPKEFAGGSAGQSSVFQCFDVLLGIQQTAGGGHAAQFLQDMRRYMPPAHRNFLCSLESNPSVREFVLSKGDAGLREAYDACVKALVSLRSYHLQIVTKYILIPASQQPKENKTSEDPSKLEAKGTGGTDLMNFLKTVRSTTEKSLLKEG

| IC50 [1] [µM] | Compound | IC50 (hIDO IC50, recombinant human IDO) [µM] |
| --- | --- | --- |
| 10 to 100 | c1ccc(-c2c[nH]cn2)c(OCCc2ccc(N3CCCC3)cc2)c1 [compound 1225, 4-(2-(4-(pyrrolidin-1-yl)phenethoxy)phenyl)-1H-imidazole] | – |
| 1 to 10 | O=C(Cc1cscn1)Nc1ccc(CCOc2ccccc2-c2c[nH]cn2)cc1 [compound 1226, N-(4-(2-(2-(1H-imidazol-4-yl)phenoxy)ethyl)phenyl)-2-(thiazol-4-yl)acetamide] | – |
| 1 to 10 | O=C(Cc1ncccn1)Nc1ccc(CCOc2ccccc2-c2c[nH]cn2)cc1 [compound 1227, N-(4-(2-(2-(1H-imidazol-4-yl)phenoxy)ethyl)phenyl)-2-(pyrimidin-2-yl)acetamide] | – |
| 1 to 10 | O=C(Cc1ccccc1)Nc1ccc(CCOc2ccccc2-c2c[nH]cn2)cn1 [compound 1228, N-(5-(2-(2-(1H-imidazol-4-yl)phenoxy)ethyl)pyridin-2-yl)-2-phenylacetamide] | – |
| 10 to 100 | O=C1CCCCN1c1ccc(CCOc2ccccc2-c2c[nH]cn2)cc1 [compound 1230, 1-(4-(2-(2-(1H-imidazol-4-yl)phenoxy)ethyl)phenyl)piperidin-2-one] | – |
| 10 to 100 | Oc1cccc(OCCN2CCOCC2)c1-c1cnc[nH]1 [compound 1231, 2-(1H-imidazol-5-yl)-3-(2-morpholinoethoxy) phenol] | – |
| 10 to 100 | CC(=O)Nc1ccc(CCOc2cccc(O)c2-c2cnc[nH]2)cc1 [compound 1232, N-(4-(2-(3-hydroxy-2-(1H-imidazol-5-yl)phenoxy)ethyl)phenyl)acetamide] | – |
| > 100 | CN1CCN(CCOc2ccccc2-c2c[nH]cn2)CC1 [compound 1234, 1-(2-(2-(1H-imidazol-4-yl)phenoxy)ethyl)-4-methylpiperazine] | – |
| 10 to 100 | Oc1cccc(OCCC2CCCO2)c1-c1cnc[nH]1 (stereo not drawn) [compound 1235, 2-(1H-imidazol-5-yl)-3-(2-(tetrahydrofuran-2-yl)ethoxy)phenol] | – |
| > 100 | c1ccc(-c2c[nH]cn2)c(OCCN2CCOCC2)c1 [compound 1236, 4-(2-(2-(1H-imidazol-4-yl)phenoxy)ethyl) morpholine] | – |
| 10 to 100 | Oc1cccc(OCCc2ccncc2)c1-c1cnc[nH]1 [compound 1238, 2-(1H-imidazol-5-yl)-3-(2-(pyridin-4-yl)ethoxy) phenol] | – |
| 1 to 10 | O=C(Cc1cncnc1)Nc1ccc(CCOc2ccccc2-c2c[nH]cn2)cc1 [compound 1239, N-(4-(2-(2-(1H-imidazol-4-yl)phenoxy)ethyl)phenyl)-2-(pyrimidin-5-yl)acetamide] | – |
| 10 to 100 | CC(C)(C)OC(=O)N1CCC(CCOc2cccc(O)c2-c2cnc[nH]2)CC1 [compound 1240, tert-butyl 4-(2-(3-hydroxy-2-(1H-imidazol-5-yl)phenoxy)ethyl)piperidine-1-carboxylate] | – |
| 1 to 10 | O=C(Cc1cccc([N+](=O)[O-])c1)Nc1ccc(CCOc2ccccc2-c2c[nH]cn2)cc1 [compound 1241, N-(4-(2-(2-(1H-imidazol-4-yl)phenoxy)ethyl)phenyl)-2-(3-nitrophenyl)acetamide] | – |
| < 1 | O=C(Cc1ccccc1[N+](=O)[O-])Nc1ccc(CCOc2ccccc2-c2c[nH]cn2)cc1 [compound 1242, N-(4-(2-(2-(1H-imidazol-4-yl)phenoxy)ethyl)phenyl)-2-(2-nitrophenyl)acetamide] | – |
| 10 to 100 | BrCCOc1ccccc1-c1c[nH]cn1 [compound 1243, 4-(2-(2-bromoethoxy)phenyl)-1H-imidazole] | – |
| 1 to 10 | Nc1cccc(CC(=O)Nc2ccc(CCOc3ccccc3-c3c[nH]cn3)cc2)c1 [compound 1244, N-(4-(2-(2-(1H-imidazol-4-yl)phenoxy)ethyl)phenyl)-2-(3-aminophenyl)acetamide] | – |
| < 1 | O=C(Cc1ccc([N+](=O)[O-])cc1)Nc1ccc(CCOc2ccccc2-c2c[nH]cn2)cc1 [compound 1247, N-(4-(2-(2-(1H-imidazol-4-yl)phenoxy)ethyl)phenyl)-2-(4-nitrophenyl)acetamide] | – |
| < 1 | Nc1ccccc1CC(=O)Nc1ccc(CCOc2ccccc2-c2c[nH]cn2)cc1 [compound 1248, N-(4-(2-(2-(1H-imidazol-4-yl)phenoxy)ethyl)phenyl)-2-(2-aminophenyl)acetamide] | – |
| 1 to 10 | Nc1ccc(CC(=O)Nc2ccc(CCOc3ccccc3-c3c[nH]cn3)cc2)cc1 [compound 1250, N-(4-(2-(2-(1H-imidazol-4-yl)phenoxy)ethyl)phenyl)-2-(4-aminophenyl)acetamide] | – |
| – | CC(=O)OCCN(C)C(=O)Oc1ccc(Cl)cc1-c1c[nH]cn1 [compound 1253, 2-(((4-chloro-2-(1H-imidazol-4-yl)phenoxy)carbonyl)(methyl)amino)ethyl acetate] | > 100 |

| IC50 [1] [µM] | Compound | IC50 (hIDO IC50, recombinant human IDO) [µM] |
| --- | --- | --- |
| 1 to 10 | Nc1nc(CC(=O)Nc2ccc(CCOc3ccccc3-c3c[nH]cn3)cc2)cs1 [compound 1257, N-(4-(2-(2-(1H-imidazol-4-yl)phenoxy)ethyl)phenyl)-2-(2-aminothiazol-4-yl)acetamide] | – |
| < 1 | O=C(CC1CCOCC1)Nc1ccc(CCOc2ccccc2-c2c[nH]cn2)c(Cl)c1 [compound 1260, N-(4-(2-(2-(1H-imidazol-4-yl)phenoxy)ethyl)-3-chlorophenyl)-2-(tetrahydro-2H-pyran-4-yl)acetamide] | – |
| < 1 | COC(=O)c1cccc(C(=O)Nc2ccc(CCOc3ccccc3-c3c[nH]cn3)cc2)c1 [compound 1261, methyl 3-((4-(2-(2-(1H-imidazol-4-yl)phenoxy)ethyl)phenyl)carbamoyl)benzoate] | – |
| 10 to 100 | O=C(Nc1ccc(CCOc2ccccc2-c2c[nH]cn2)cc1)NC1CCOCC1 [compound 1263, 1-(4-(2-(2-(1H-imidazol-4-yl)phenoxy)ethyl)phenyl)-3-(tetrahydro-2H-pyran-4-yl)urea] | – |
| < 1 | O=C(Nc1ccc(CCOc2ccccc2-c2c[nH]cn2)c(Cl)c1)NC1CCOCC1 [compound 1265, 1-(4-(2-(2-(1H-imidazol-4-yl)phenoxy)ethyl)-3-chlorophenyl)-3-(tetrahydro-2H-pyran-4-yl)urea] | – |
| 1 to 10 | O=C(O)c1ccc(C(=O)Nc2ccc(CCOc3ccccc3-c3c[nH]cn3)cc2)cc1 [compound 1270, 4-((4-(2-(2-(1H-imidazol-4-yl)phenoxy)ethyl)phenyl)carbamoyl)benzoic acid] | – |
| 1 to 10 | COC(=O)c1ccc(C(=O)Nc2ccc(CCOc3ccccc3-c3c[nH]cn3)cc2)cc1 [compound 1271, methyl 4-((4-(2-(2-(1H-imidazol-4-yl)phenoxy)ethyl)phenyl)carbamoyl)benzoate] | – |
| 1 to 10 | O=C(Nc1ccc(CCOc2ccccc2-c2c[nH]cn2)cc1)c1cc(=O)[nH]c(=O)[nH]1 [compound 1272] | – |
| 1 to 10 | O=C(O)c1cccc(C(=O)Nc2ccc(CCOc3ccccc3-c3c[nH]cn3)cc2)c1 [compound 1276, 3-((4-(2-(2-(1H-imidazol-4-yl)phenoxy)ethyl)phenyl)carbamoyl)benzoic acid] | – |
| 1 to 10 | O=C(O)c1ccccc1C(=O)Nc1ccc(CCOc2ccccc2-c2c[nH]cn2)cc1 [compound 1285, 2-((4-(2-(2-(1H-imidazol-4-yl)phenoxy)ethyl)phenyl)carbamoyl)benzoic acid] | – |
| 10 to 100 | c1ccc(-c2c[nH]cn2)c(OCc2cscn2)c1 [compound 1289, 4-((2-(1H-imidazol-4-yl)phenoxy)methyl) thiazole] | – |
| 10 to 100 | Fc1ccc(OCCc2ccccc2)c(-c2cnc[nH]2)c1 [compound 1292, 5-(5-fluoro-2-phenethoxyphenyl)-1H-imidazole] | – |
| < 1 | O=C(CC1CCOCC1)Nc1ccc(CCOc2ccccc2-c2c[nH]cn2)c(F)c1 [compound 1295, N-(4-(2-(2-(1H-imidazol-4-yl)phenoxy)ethyl)-3-fluorophenyl)-2-(tetrahydro-2H-pyran-4-yl)acetamide] | – |
| 10 to 100 | Fc1cccc(-c2c[nH]cn2)c1OCCc1ccccc1Cl [compound 1296, 4-(2-(2-chlorophenethoxy)-3-fluorophenyl)-1H-imidazole] | – |
| 10 to 100 | O=C(CC1CCOCC1)Nc1ccc(CCOc2ccccc2-c2c[nH]cn2)cc1Cl [compound 1297, N-(4-(2-(2-(1H-imidazol-4-yl)phenoxy)ethyl)-2-chlorophenyl)-2-(tetrahydro-2H-pyran-4-yl)acetamide] | – |
| 10 to 100 | O=C(CC1CCOCC1)Nc1ccc(Cl)c(CCOc2ccccc2-c2c[nH]cn2)c1 [compound 1298, N-(3-(2-(2-(1H-imidazol-4-yl)phenoxy)ethyl)-4-chlorophenyl)-2-(tetrahydro-2H-pyran-4-yl)acetamide] | – |
| < 1 | O=C(CC1CCOCC1)Nc1ccc(CCOc2ccccc2-c2c[nH]cn2)c(C(F)(F)F)c1 [compound 1305, N-(4-(2-(2-(1H-imidazol-4-yl)phenoxy)ethyl)-3-(trifluoromethyl)phenyl)-2-(tetrahydro-2H-pyran-4-yl)acetamide] | – |
| > 100 | O=C(O)c1ccccc1CCOc1ccccc1-c1c[nH]cn1 [compound 1325, 2-(2-(2-(1H-imidazol-4-yl)phenoxy)ethyl) benzoic acid] | – |
| > 100 | CNC(=O)c1ccccc1CCOc1ccccc1-c1c[nH]cn1 [compound 1332, 2-(2-(2-(1H-imidazol-4-yl)phenoxy)ethyl)-N-methylbenzamide] | – |
| < 1 | NC(C(=O)Nc1ccc(CCOc2ccccc2-c2c[nH]cn2)c(Cl)c1)C1CCOCC1 (stereo not drawn) [compound 1333, N-(4-(2-(2-(1H-imidazol-4-yl)phenoxy)ethyl)-3-chlorophenyl)-2-amino-2-(tetrahydro-2H-pyran-4-yl)acetamide] | – |

| Compound | IC50 [1] [µM] | IC50 (hIDO IC50, recombinant human IDO) [µM] |
| --- | --- | --- |
| COC(=O)[C@@H](Cc1cn(C)c2ccccc12)NC(=O)Oc1ccc(Cl)cc1-c1c[nH]cn1 [compound 1264, (R)-methyl 2-(((4-chloro-2-(1H-imidazol-4-yl)phenoxy)carbonyl)amino)-3-(1-methyl-1H-indol-3-yl) propanoate] | 1 to 10 | – |
